Reference: publication PMC12040169 (PLOS Biology, 2025)

assay: in vitro; details: human, hela cells, % viability

In order of rising viability at 28.5 h, 10 µM:
1. Nc1ncnc2c1c(I)cn2[C@@H]1O[C@H](CO)[C@H](O)C1O (some centres unmarked) [CBK201321]  16.5%
2. O=S(=O)(c1ccc(N2CCNCC2)cc1)n1ccc2ccc(Br)cc21 [CBK034034C]  70.6%
3. O=C(c1ccco1)N1CCN(c2ccc(-c3cccc4cccnc34)cn2)CC1 [CBK037640]  72.4%
4. CC(C)(O)C1CCCN(C(=O)c2coc(COc3cccc(F)c3)n2)C1 (centres unmarked) [CBK306977]  77.4%
5. O=C(COc1ccc(CCO)cc1)Nc1ccccc1-c1ccccc1 [CBK269666]  80.9%
6. O=C1NCC2(C/C=C/CCOc3ccccc31)CCN(C(=O)Cc1cccc(F)c1)CC2 [CBK292015]  81%
7. O=C(Nc1ccc(F)cc1)c1ccsc1NS(=O)(=O)Cc1ccccc1 [CBK042303]  82.8%
8. Cc1oc2ccc(O)cc2c1C(=O)N(C)CCN1CCCCC1 [CBK282158]  83%
9. CCCNC(=O)Cc1sccc1NS(=O)(=O)c1ccc(C)cc1 [CBK038118]  83%
10. Cc1cc(Br)ccc1NC(=O)C(=O)NC1CC1 [CBK269284]  83.6%
11. O=C(Cn1cnc2ccc([N+](=O)[O-])cc2c1=O)Nc1ccc(C(=O)O)cc1 [CBK297542]  85.5%
12. Nc1c(C(=O)c2ccc3c(c2)OCO3)sc2nc(-c3cccnc3)ccc12 [CBK270186]  86.3%
13. Cc1ccn(CCNC(=O)Cn2c3c(c4ccccc42)CCC3)n1 [CBK282708]  86.5%
14. O=C(N[C@H]1CCN2C(=O)N(c3cccc4nsnc34)C(=O)[C@@H]2C1)c1cccs1 [CBK289543]  87%
15. O=C(CC1SC(NC2CC3C=CC2C3)=NC1=O)NCc1ccccc1 (centres unmarked) [CBK049940]  87.1%
16. Cc1csc(-c2cnc(N3CCOCC3)c3nccn23)c1 [CBK091287]  87.5%
17. COc1cccc(C(=O)NCCC(=O)N2CCC3(CC2)CNC(=O)O3)c1 [CBK306803]  88.2%
18. NS(=O)(=O)c1ccc(CCNCc2ccc3c(c2)OCO3)cc1 [CBK269819C]  88.5%
19. O=C(CN1C2CCC1CC(O)(c1ccco1)C2)N1CCCC1 (centres unmarked) [CBK284042]  88.7%
20. CC1CN(C(=O)Nc2ccccc2F)CC(C)O1 (centres unmarked) [CBK004990]  89.9%
21. CC1(C)C(=O)Nc2ccccc2N1C(=O)COc1ncnc2sc3c(c12)CCC3 [CBK297530]  89.9%
22. O=C(CC1(O)C(=O)N(CCc2ccccc2)c2ccc(Br)cc21)c1ccncc1 (centres unmarked) [CBK293976]  90.2%
23. CCN(CCc1nc2cc(OC)ccc2[nH]1)C(=O)c1cc(C#N)cn1C [CBK306658]  90.5%
24. CN1CCN(C(=O)c2cccc(-n3cccn3)c2)C(c2ccccc2)C1 (centres unmarked) [CBK282013]  90.5%
25. Cc1scnc1CN1CCn2nc(C(O)Cc3ccccc3)cc2C1 (centres unmarked) [CBK307612]  90.9%
26. Cc1ccc(-c2nnc(CNC(=O)c3cccc(F)c3F)o2)s1 [CBK284641]  91.1%
27. COc1cccc(Cn2c(C3CCNCC3)cc3cccnc32)c1 [CBK285076]  91.5%
28. C(=N\Nc1ccc2nn(-c3ccccc3)nc2c1)/c1c[nH]c2ccccc12 [CBK261064]  91.6%
29. Cc1ccc(-c2csc(NC(=O)c3ccccc3C(=O)O)n2)cc1 [CBK072083]  91.9%
30. COc1cc(-c2cnc(N)c(NCC(C)(C)CO)n2)cc(OC)c1OC [CBK063523]  92.2%
31. O=C(COc1ccc(F)cc1)N1CCC2(CCNC2)C1 (centres unmarked) [CBK156691C]  92.5%
32. COc1ccccc1NC(=O)N1C[C@@H]2C[C@H](C1)c1c(-c3cccc(C#N)c3)ccc(=O)n1C2 [CBK289197]  92.8%
33. CCOCCC(=O)NC1CCCc2nc(N3CCC(CO)CC3)ncc21 (centres unmarked) [CBK306624]  92.8%
34. O=C(c1nccs1)C1CCN(C(=O)c2ccccc2F)CC1 [CBK284174]  93.3%
35. O=C(O)c1ccc(-c2n[nH]c(=O)c3c2CCCC3)cc1 [CBK287868]  93.6%
36. CCn1ncc2c1CCCC2NC1CCN(c2ccccc2)C1=O (centres unmarked) [CBK305144]  93.6%
37. Cc1ccc(-c2cc(C(=O)NCC3(C)COC3)no2)cc1 [CBK281744]  93.8%
38. O=c1[nH]c(=O)n([C@H]2C[C@@H](O)[C@@H](CO)O2)cc1CO [CBK201332]  94%
39. CC1CNCCN1C(=O)c1cnn(-c2cccc(Cl)c2)c1 (centres unmarked) [CBK304238]  94.1%
40. COC1CCCC(C(=O)N2CCC(c3onc4c3CCCC4)CC2)C1 (centres unmarked) [CBK284598]  94.3%
41. Cc1ccc(N(CC(=O)Nc2cccc3ccccc23)S(=O)(=O)c2ccc(F)cc2)cc1 [CBK262707]  94.7%
42. O=C(CN1C(=O)COc2ccccc21)NCc1ccco1 [CBK269682]  94.8%
43. Cc1nn(C)c2ncc(S(=O)(=O)Nc3ccc(F)cn3)cc12 [CBK305175]  95.1%
44. Cc1[nH]c(=O)[nH]c(=S)c1C(=O)Nc1ccc2[nH]c(C(F)(F)F)nc2c1 [CBK115494]  95.2%
45. Cc1ccc(CSCCNC(=O)/C=C/c2ccccc2)cc1 [CBK263985]  95.3%
46. Cc1ccc(C)c(C(=O)CCC(=O)Nc2cccnc2)c1 [CBK266902]  95.8%
47. O=C(O)c1ccc(NC2OC(CO)C(O)C2O)cc1 (centres unmarked) [CBK218836]  95.9%
48. CCOC(=O)C(NS(=O)(=O)c1ccc(NC(C)=O)c(Cl)c1)C(=O)OCC [CBK043996]  96.2%
49. COC(=O)c1ccccc1NC(=O)CSc1nc(C)cc(C)n1 [CBK263818]  96.2%
50. CC1CCC(C(N)=O)CN1C(=O)c1cncc(Br)c1 (centres unmarked) [CBK305773]  96.3%
51. CN(C)CCN1CCN(c2nc(-c3occc3C=O)cnc2N)CC1 [CBK063917]  96.3%
52. O=C(C[n+]1ccc(CCSCc2ccc3c4c(cccc24)CC3)cc1)c1ccc2c3c(cccc13)CC2 [CBK260881B]  96.4%
53. CC1CCN(S(=O)(=O)c2ccc(C(=O)N[C@@H](C)C(=O)O)cc2)CC1 [CBK297106]  96.6%
54. CN1CCN(c2nccnc2OCC2COc3ccccc3O2)CC1 (centres unmarked) [CBK003899C]  96.7%
55. S=C(Nc1ccc(Nc2ccccc2)cc1)N1CCN(Cc2ccc3c(c2)OCO3)CC1 [CBK266141]  96.7%
56. Cc1cc2oc(=O)c3c(c2cc1C)CCN(C)C3 [CBK017803]  97%
57. S=C1NCCN1c1nnc(-c2cccs2)[nH]1 [CBK007096]  97.3%
58. CCN(Cc1ccncc1)C(CC1CCCCC1)c1ccccc1 (centres unmarked) [CBK061639T]  97.3%
59. CC[C@H]1CN(C(=O)NC(C)C)CC[C@H]1CC(=O)NCc1ccc2c(c1)OCO2 [CBK288775]  97.9%
60. COc1ccc(C2Sc3ccccc3N(CCN(C)C)C(=O)C2OC(C)=O)cc1 (centres unmarked) [CBK010647]  98%
61. Cc1[nH]c2cc(C(=O)O)ccc2c1CC(=O)O [CBK269955]  98%
62. COc1ccc(Br)cc1S(=O)(=O)NCC(=O)Nc1ccc(F)cc1 [CBK042223]  98.1%
63. N#C/C(=C/c1ccc(OCc2ccc(C(=O)O)cc2)cc1)C(=O)Nc1ccc(Cl)cc1 [CBK263187]  98.2%
64. CN(C)c1ncc(-c2ccc(Cl)cc2)c(C2CCCN2C(=O)CN2CCCC2)n1 (centres unmarked) [CBK286037]  99.2%
65. COc1cccc(C(=O)N2CCC(NC(=O)c3cc(F)ccc3F)CC2)c1 [CBK155026]  99.4%
66. O=C(COc1ccc(N2CC(C(=O)O)CC2=O)cc1)Nc1cccc(C(F)(F)F)c1 (centres unmarked) [CBK268096]  100%
67. O=C(O)c1ccc(/C=N/NC(=O)C2COc3ccccc3O2)cc1 (centres unmarked) [CBK261481]  100%
68. O=C(CCSc1c(Cl)cccc1[N+](=O)[O-])Nc1ccc(Br)c2cccnc12 [CBK266777]  101%
69. Oc1ccc(CCNc2ncnc3[nH]cnc23)cc1 [CBK017724C]  101%
70. C=CCNC(=O)c1ccccc1NC(=O)Cc1ccc(Cl)cc1 [CBK270086]  101%
71. N#Cc1ccccc1COC(=O)c1cc(-c2ccc(/C=C/c3nc(O)c([N+](=O)[O-])c(=O)[nH]3)o2)ccc1Cl [CBK269115]  101%
72. O=C(O)c1csc(S(=O)(=O)Nc2ccc(Br)cc2Cl)c1 [CBK297731]  101%
73. O=C(CSc1ccc2nnc(-c3ccccn3)n2n1)N1CCCCC1 [CBK287621]  101%
74. Cc1noc(C)c1C(=O)N1CCCC(c2nc(C)n3ccsc23)C1 (centres unmarked) [CBK285211]  103%
75. Cn1cc(-c2nccnc2OC(c2ccccc2)c2ccccc2)cn1 [CBK107073]  103%
76. COCCCn1c(=O)[nH]c2ncc(-c3cccc(/C=C/C(=O)O)c3)nc21 [CBK065107]  104%
77. CS(=O)(=O)c1ccc(-c2nccnc2NCc2cccnc2)cc1 [CBK036977]  104%
78. O=C(CN1CCCC1=O)NC(Cc1cccs1)c1nccs1 (centres unmarked) [CBK282177]  104%
79. CC1CCC(C(N)=O)CN1c1cc(=O)n2ccccc2n1 (centres unmarked) [CBK304835]  104%
80. CC(C)CC1CC(=O)Nc2c1c(=O)[nH]n2C(C)C (centres unmarked) [CBK287924]  105%
81. Cc1n[nH]c(C)c1CC(=O)NC(Cc1ccsc1)c1ccccn1 (centres unmarked) [CBK285271]  105%
82. COc1ccc(Cl)cc1S(=O)(=O)NC(C)C(=O)O (centres unmarked) [CBK270233]  106%
83. CN1CCN(c2nc(-c3cccc4ncccc34)cnc2N)CC1 [CBK063465]  107%
84. Cc1cc(C)n(CCNC(=O)N2CCC(Oc3cccnc3)CC2)n1 [CBK306719]  109%
85. CC1Cc2cc(C(O)(CCN(C)C)c3ccccc3)ccc2O1 (centres unmarked) [CBK011764]  110%
86. O=C(O)CCC(=O)c1c[nH]c2ccccc12 [CBK261275]  110%
87. CN(C)C(=O)C1(Cc2ccccc2-c2ccccc2)CCN(C(=O)c2cccc(F)c2)CC1 [CBK285675]  111%
88. COc1ccccc1CN(C)S(=O)(=O)c1ccc(S(N)(=O)=O)cc1 [CBK306008]  113%

same assay, conditions: human, hela cells, % viability, bulk resorufin, single well

Work on `CN1CCC(C#N)(c2ccccc2F)CC1` [CBK003511] yielded a viability at 28.5 h, 10 µM of 99.3%.
